PubChem BioAssay AID602463 (NMMLSC, 2012)

Test system: DS-PAMPA, 20% ACN buffer, UV absorbance, 30 min
Experiment: artificial-membrane permeation in acetonitrile buffer – biophysical, double-sink PAMPA, 20% ACN buffer, pH 5.0/6.2/7.4, ADME assay for GPR30 and estrogen receptor ligands, late-stage follow-up (AID 602463)
Settings: stronger effect = higher value

- permeability pH 7.4: 316 10^-6 cm/s
- permeability pH 5.0 (measured here: PAMPA permeability at pH 5.0): 349 10^-6 cm/s
- permeability pH 6.2 (measured here: PAMPA permeability at pH 6.2): 565 10^-6 cm/s
Compound: CC(=O)c1ccc2c(c1)[C@@H]1C=CC[C@@H]1[C@H](c1cc3c(cc1Br)OCO3)N2
